The results in this text go back to patent US4775675A, “Thiazolidinecarboxylic acid derivatives and treatment of liver diseases therewith” (Biogal Gyogyszergyar, priority 1985, dated 1988).

Series [1] is described as follows: acute toxicity investigation (LD50). The settings on record: mouse, in vivo, mice. Here is the method:
The compounds prepared were subjected to acute toxicity investigations. For this purpose, the compounds under test were dissolved in an aqueous sodium carbonate solution and administered intraperitoneally (i.p.) or intravenously (i.v.) to the animals (40 days old CFLP female mice).
Some characteristic LD50 values of the compounds of the invention are as follows: […]

The test system of series [2] is CFY male rats. The series can be described thus: liver protecting effect: carbon tetrachloride intoxication followed by treatment with the compounds under test. It counts as in vivo, rat (CFY male). The note with it: CCl4 1.5 g/kg orally, compound 100 mg/kg i.p. after 6 hours; for TG (triglyceride content of the liver): control 40 ± 8, CCl4 alone 86 ± 17; for SGOT activity: control 81.7 ± 16, CCl4 alone 269.0 ± 14. On the procedure: (§1) In order to investigate the liver protecting effect, the compounds were tested at CFY male rats with 200 to 240 g of body-weight after a starvation for 18 hours.
(§2) An experimental liver damage was elicited by using carbon tetrachloride, allyl alcohol or galactosamine. The activity of the serum glutamate-oxalacetate-transaminase (SGOT), the triglyceride (TG) content of the liver as well as the histological picture of the liver were studied.
(§3) Liver damaging agents (1.5 g/kg of body-weight of carbon tetrachloride orally; 0.75 g/kg of body-weight of galactosamine intraperitoneally) were administered to the starved animals, whereupon the animals received the compound under test in a dose of 100 mg/kg of body-weight intraperitoneally after 6 hours.
(a) The results of the carbon tetrachloride intoxication followed by treatment with the compounds under test are as follows: […]

Series [3] relates to CFY male rats. The series can be described thus: liver protecting effect: allyl alcohol intoxication followed by treatment with the compounds under test. It counts as in vivo, rat (CFY male). The note with it: compound 100 mg/kg of body-weight, after 24 hours, before 1.81±0.43, allyl alcohol 4.16±1.63. On the procedure: as §1, §2, §3
(b) The results of the allyl alcohol intoxication followed by treatment with the compounds under test are as follows:
After 24 hours, the animals were killed and the activity of the serum glutamate-pyruvate-transaminase (SGPT) was determined. After a treatment with allyl alcohol, the SGPT level was increased from a value of 1.81±0.43 μmoles/ml.h. to 4.16±1.63 μmoles/ml. h. This increase was diminished to 2.84±0.97 μmoles/ml.h. by a treatment with a 100 mg/kg of body-weight dose of the compound described in Example 1.

Series [4] concerns CFY male rats. Description: liver protecting effect: galactosamine damage followed by treatment with the compounds under test (histology). It counts as in vivo, rat (CFY male). The note with it: galactosamine 0.75 g/kg i.p., compound i.p. 6 hours later.

Structures can show the parent of a compound that is named as a salt.

As for `CC1(C)SC(c2ccc([N+](=O)[O-])o2)N[C@H]1C(=O)O` (stereo partly drawn) [Example 1, 5,5-Dimethyl-2-(5-nitro-2-furyl)-thiazolidine-4(S)-carboxylic acid], the LD50 in series [1] (iv) was found to be 2190 mg/kg. Moreover, in the series with CFY male rats [2], the TG (triglyceride content of the liver) is 51 ± 15 µg/mg protein and the SGOT activity came to 224.0 ± 14 unit/liter. In the series with CFY male rats [3], the “SGPT level (activity of the serum glutamate-pyruvate-transaminase)” value came to 2.84 ± 0.97 µmol/mL/h. Moreover, in the series with CFY male rats [4], the “number of focally appearing parenchymal necroses” value is recorded as “diminished” and the “severity of the alterations characteristic of the galactosamine hepatitis” value is given as “diminished”.

Turning to `CC1(C)SC(c2ccco2)N[C@H]1C(=O)O` (stereo partly drawn) [Example 2, 5,5-Dimethyl-2-(2-furyl)-thiazolidine-4(S)-carboxylic acid], in the series with CFY male rats [2], the TG (triglyceride content of the liver) came out at 84 ± 6 µg/mg protein and the SGOT activity is recorded as 229.0 ± 14 unit/liter. In the series with CFY male rats [4], the “number of focally appearing parenchymal necroses” value was “diminished” and the “severity of the alterations characteristic of the galactosamine hepatitis” value is “diminished”.

In the series on CFY male rats [2], `CC1(C)SC(c2cccnc2)N[C@H]1C(=O)O` (stereo partly drawn) [Example 5, 5,5-Dimethyl-2-(3-pyridyl)-thiazolidine-4(S)-carboxylic acid] came in with a TG (triglyceride content of the liver) of 61 ± 14 µg/mg protein and an SGOT activity of 243.0 ± 21 unit/liter.

In the series on CFY male rats [2], `CC1(C)SC(c2ccc3c(c2)CCC3)N[C@H]1C(=O)O` (stereo partly drawn) [Example 8, 5,5-Dimethyl-2-(5-indanyl)-thiazolidine-4(S)-carboxylic acid] had a TG (triglyceride content of the liver) of 76 ± 10 µg/mg protein and an SGOT activity of 234.0 ± 23 unit/liter.

The compound `CC(=O)N1[C@@H](C(=O)O)C(C)(C)S[C@H]1c1ccccc1` [Example 27, 3-Acetyl-5,5-dimethyl-2(S)-phenylthiazolidine-4(S)-carboxylic acid] yielded an LD50 in series [1] (ip) of 1500 mg/kg.

Compound `CC1(C)SC(CO)N[C@H]1C(=O)O` (stereo partly drawn) [Example 14, 5,5-Dimethyl-2-hydroxymethylthiazolidine-4(S)-carboxylic acid] came in with an LD50 in series [1] (ip) of 5000 mg/kg.

For the compound `CC(=O)N1[C@@H](c2ccc(Cl)cc2)SC(C)(C)[C@@H]1C(=O)O` [Example 22, 3-Acetyl-2(R)-(4-chlorophenyl)-5,5-dimethylthiazolidine-4(S)-carboxylic acid], in series [1] (ip), the LD50 is 550 mg/kg.

For `CSc1ccc(C2N[C@@H](C(=O)O)C(C)(C)S2)cc1` (stereo partly drawn) [Example 11, 5,5-Dimethyl-2-(4-methylmercaptophenyl)-thiazolidine-4(S)-carboxylic acid], in the series with CFY male rats [2], the TG (triglyceride content of the liver) was found to be 70 ± 14 µg/mg protein and the SGOT activity is on record as 235.0 ± 19 unit/liter.

Turning to `CC1(C)SC(c2ccncc2)N[C@H]1C(=O)O` (stereo partly drawn) [Example 6, 5,5-Dimethyl-2-(4-pyridyl)-thiazolidine-4(S)-carboxylic acid], in the series with CFY male rats [2], the TG (triglyceride content of the liver) was found to be 88 ± 20 µg/mg protein and the SGOT activity worked out at 250.0 ± 13 unit/liter.

In the series on CFY male rats [2], `CC1(C)SC(c2ccc(F)cc2)N[C@H]1C(=O)[O-].[K+]` (stereo partly drawn) [Example 10, 5,5-Dimethyl-2-(4-fluorophenyl)-thiazolidine-4(S)-carboxylic acid and potassium salt] yielded a TG (triglyceride content of the liver) of 81 ± 11 µg/mg protein and an SGOT activity of 227.0 ± 40 unit/liter.

Turning to `CC1(C)SC(c2cccc([N+](=O)[O-])c2)N[C@H]1C(=O)O` (stereo partly drawn) [Example 9, 5,5-Dimethyl-2-(3-nitrophenyl)-thiazolidine-4(S)-carboxylic acid magnesium salt], in the series with CFY male rats [2], the TG (triglyceride content of the liver) came to 83 ± 19 µg/mg protein and the SGOT activity came to 232.0 ± 34 unit/liter.

For `CC1(C)SC(c2cc3ccccc3o2)N[C@H]1C(=O)O` (stereo partly drawn) [Example 7, 2-(2-Benzofuryl)-5,5-dimethylthiazolidine-4(S)-carboxylic acid], in the series with CFY male rats [2], the TG (triglyceride content of the liver) worked out at 61 ± 13 µg/mg protein and the SGOT activity is recorded as 224.0 ± 14 unit/liter.

As to `Oc1cc(O)c2c(c1)O[C@H](c1ccc(O)c(O)c1)[C@@H](O)C2` [catergen, (+)2-(3,4-dihydroxyphenyl)-3,5,7-chromanetriol, reference compound], in the series on CFY male rats [2], the TG (triglyceride content of the liver) came to 77 ± 7 µg/mg protein and the SGOT activity is listed as 241.0 ± 23 unit/liter.

With `CC(=O)N1[C@@H](C(=O)O)C(C)(C)S[C@H]1c1ccc([N+](=O)[O-])o1` [Example 30, 3-Acetyl-5,5-dimethyl-2(S)-(5-nitro-2-furyl)-thiazolidine-4(S)-carboxylic acid], the LD50 in series [1] (ip) came out at 2500 mg/kg.

With `Cn1cccc1C1N[C@@H](C(=O)O)C(C)(C)S1` (stereo partly drawn) [Example 4, 5,5-Dimethyl-2-(N-methyl-2-pyrrolyl)thiazolidine-4(S)-carboxylic acid], in the series with CFY male rats [2], the TG (triglyceride content of the liver) came out at 114 ± 24 µg/mg protein and the SGOT activity is given as 241.0 ± 21 unit/liter.

As a reminder, the LD50 is the dose at which mortality reaches 50%. A higher LD50 goes with lower toxicity.
